pEC50: −log10 of the molar value. Structures can show the parent of a compound that is named as a salt.
Legend:
aromatase = biological target: T1, aromatase (Rattus norvegicus, UniProt P22443); experiment: Aromatase inhibition in the rat ovarian microsome assay; assay type: biochemical; settings: rat ovarian microsomes; substrate (androstenedione) concentration 0.1 μM
T1 construct: ovarian microsomes are obtained from rats treated with pregnant mares serum gonadotropin; from tissue; host or cells: ovary microsomes from rats treated with pregnant mares serum gonadotropin
T1 sequence (P22443 1-508): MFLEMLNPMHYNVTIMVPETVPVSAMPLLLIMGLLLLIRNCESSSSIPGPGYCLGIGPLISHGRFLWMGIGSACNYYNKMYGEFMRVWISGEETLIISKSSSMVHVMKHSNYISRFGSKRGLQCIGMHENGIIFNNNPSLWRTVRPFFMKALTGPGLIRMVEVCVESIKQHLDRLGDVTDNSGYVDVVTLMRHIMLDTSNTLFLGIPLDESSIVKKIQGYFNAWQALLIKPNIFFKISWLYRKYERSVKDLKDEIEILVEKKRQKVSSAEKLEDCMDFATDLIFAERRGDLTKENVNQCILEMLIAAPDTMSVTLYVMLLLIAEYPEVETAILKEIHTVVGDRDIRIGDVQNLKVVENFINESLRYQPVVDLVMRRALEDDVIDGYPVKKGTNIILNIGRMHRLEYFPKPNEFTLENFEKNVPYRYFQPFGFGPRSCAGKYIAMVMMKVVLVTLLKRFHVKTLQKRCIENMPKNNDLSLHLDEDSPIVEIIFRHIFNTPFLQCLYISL
Method: In this test system, ovarian microsomes are obtained from rats treated with pregnant mares serum gonadotropin. Test compounds are added to reaction vials containing 0.1 μM 4-androstene-3,17-dione, 100,000 dpm 1,2[^3 H]-androstenedione, the microsomes and a NADPH generating system. The concentrations of the inhibitors tested ranged between 0.005 and 10 μM.

breast cancer = settings: known aromatase inhibitors; cited from earlier work

Row | Compound | pEC50 (aromatase) | effect in treatment of breast cancer (breast cancer)
1 | Clc1ccc(C(c2ccc(Cl)cc2)c2cc[nH]n2)cc1 [3-[Bis(4-chlorophenyl)methyl]-1H-pyrazole hydrochloride] | 6.77 | –
2 | Clc1ccc(C(c2ccccc2)c2cn[nH]c2)c(Cl)c1 (stereo not shown) [4-[(2,4-Dichlorophenyl)phenylmethyl]-1H-pyrazole] | 6.51 | –
3 | CCC1(c2ccc(N)cc2)CCC(=O)NC1=O (stereo not shown) [aminoglutethimide] | – | beneficial effect in treatment of breast cancer
4 | C[C@]12C=CC(=O)C=C1CC[C@@H]1[C@@H]2CC[C@]2(C)OC(=O)CC[C@@H]12 [testolactone] | – | beneficial effect in treatment of breast cancer
